Values joined by “and” are separate entries in the source; they are usually repeats but may differ in a detail not shown here. Identical values can stand only once. “Also recorded” adds a separate entry of the source.
Experiments:
[1] = tested on: fentanyl analgesia (Hargreaves); assay: Preservation of fentanyl analgesia in Hargreaves thermal plantar model; format: in vivo; settings: rat; compound IV 15 min before fentanyl 25 μg/kg; FIG. 2
FCA induced edema = FCA induced edema (paw volume); format: in vivo, rat
Method: Compound 2 was evaluated in the rat Freund's complete adjuvant (FCA) model of inflammatory pain. The rat Freund's complete adjuvant (FCA) intraplantar model of inflammatory pain produces behaviors similar to those observed in patients and has been widely used to assess novel pharmacological treatments (Lam et al., 2008, J Ethnopharmacol. 120:44-50). The positive control was celecoxib (TRC, Montreal), and the negative control was vehicle (0.5% methyl cellulose, in phosphate buffered saline). […] The Hargreaves apparatus was obtained from Ugo Basile, Italy. The Freund's complete adjuvant was obtained from Sigma, St. Louis, and the electronic von frey was obtained from Stoelting, Ill. For this assay, paw withdrawal latency to a thermal stimulus was assessed using a radiant heat source (Ugo Basile, Italy) aimed at the plantar surface of the left hind paw (Hargreaves test; […] Paw withdrawal thresholds to a non-noxious tactile stimulus was assessed using an electronic von Frey apparatus that presented an increasing mechanical force to the plantar surface of the hind paw. Paw volume was measured by displacement of water and assuming a tissue density equal to that of water. […] Celecoxib (30 mg/kg p.o.) served as the positive control. […] After induction of anesthesia, the injection site was prepared in a sterile manner and 100 μl of a 50% suspension of FCA injected. After injection, animals were weighed and allowed to recover before being returned to their home cages. Statistical significance was determined on untransformed data using a two-way analysis of variance (Graphpad Prism, NC). Significant main effects were analyzed further by subsequent Bonferronni post-hoc test. The level of significance was set at p<0.05. Data are shown as mean±S.E.M. (with an asterisk to denote significance as compared to vehicle treated controls).

[2] = tested on: Carrageenan-induced edema; assay: Carrageenan-induced edema (paw volume); format: in vivo, rat
Method: The effect of Compound 2 in the rat carrageenan model of acute inflammatory pain was evaluated. The intraplantar carrageenan model of acute inflammatory pain in the rat results in behaviors similar to that observed in patients and has been widely used to assess novel pharmacological treatments (Whiteside et al., 2005, J. Pharmacol. Exp. Ther. 314:1234-1240). The objective of this study was to evaluate the ability of Compound 2 to reverse or prevent development of thermal hyperalgesia and edema in the rat carrageenan model of acute inflammatory pain. The positive control was indomethacin (Sigma, St. Louis), and the negative control was vehicle (0.5% methyl cellulose). […] The Hargreaves apparatus was obtained from Ugo Basile, Italy, and the lamba-carrageenan was obtained from Sigma, St. Louis. For this assay, paw withdrawal latency to a thermal stimulus was assessed using a radiant heat source (Ugo Basile, Italy) aimed at the plantar surface of the left hind paw (Hargreaves test). […] Paw volume was measured by displacement of water and assuming a tissue density equal to that of water. Baseline latencies were taken prior to carrageenan administration and re-assessed 4 h later. […] Indomethacin (positive control, 30 mg/kg p.o.) was administered prior to carrageenan and behavior assessed 4 hrs post-carrageenan. […] After induction of anesthesia, the injection site was prepared in a sterile manner and 50 μl of a 2% Jamba-carrageenan was injected. After injection, animals were weighed and allowed to recover before being returned to their home cages. Statistical significance was determined on untransformed data using a two-way analysis of variance (Graphpad Prism, NC). Significant main effects were analyzed further by subsequent Bonferronni post-hoc test. The level of significance was set at p<0.05. Data are shown as mean±S.E.M. (with an asterisk to denote significance as compared to vehicle treated controls).

[3] = tested on: spinal nerve ligation induced tactile allodynia; assay: Spinal nerve ligation (SNL, Chung model) induced tactile allodynia (von Frey filaments); format: in vivo, rat; settings: for Paw threshold / Paw withdrawal threshold: individual animals; for Paw withdrawal threshold: non-fasted

SMILES: CC1(C)SC(Nc2ccccc2O)=N[C@@H]1C(=O)O [Compound 2, (R)-2-(2-hydroxyphenylamino)-thiazoline-5,5-dimethyl-4-carboxylic acid]
- preservation of fentanyl analgesia, Hargreaves thermal hyperalgesia model [1]: dose-dependently preserves fentanyl analgesia
- Paw volume (FCA induced edema; 24 hrs post, compound 2 10 mg/kg p.o. preemptive, FIG. 20A, 10 mg/kg): 2.7 mL and 2.6 mL and 3.1 mL
- Paw volume (FCA induced edema; 24 hrs post, compound 2 30 mg/kg p.o. preemptive, FIG. 20A, 30 mg/kg): 2.1 mL and 2.9 mL and 3 mL
- Paw volume (FCA induced edema; 48 hrs post, compound 2 10 mg/kg p.o. preemptive, FIG. 20A, 10 mg/kg): 2.6 mL and 2.5 mL and 2.9 mL and 3.2 mL
- Paw volume (FCA induced edema; 48 hrs post, compound 2 30 mg/kg p.o. preemptive, FIG. 20A, 30 mg/kg): 2.5 mL and 2.8 mL and 3.1 mL and 2.7 mL and 2.9 mL
- Paw volume (FCA induced edema; FCA/Compound 2, 10 mg/kg p.o., dosed 24 hours post-FCA, Pre-FCA (baseline), individual animals): 1.7 mL (2×) and 1.6 mL (2×) and 1.8 mL (3×) and 1.5 mL
- Paw volume (FCA induced edema; FCA/Compound 2, 10 mg/kg p.o., 1 hr (D2), individual animals): 2.7 mL (3×) and 2.9 mL and 2.5 mL and 2.8 mL and 2.3 mL and 3.2 mL
- Paw volume (FCA induced edema; FCA/Compound 2, 10 mg/kg p.o., 1 hr, individual animals): 2.9 mL (2×) and 3.1 mL (2×) and 2.7 mL (2×) and 2.8 mL and 3 mL
- Paw volume (FCA induced edema; FCA/Compound 2, 10 mg/kg p.o., 3 hrs (D2), individual animals): 2.7 mL (2×) and 3 mL and 2.6 mL and 2.5 mL and 2.8 mL and 2.4 mL and 3.2 mL
- Paw volume (FCA induced edema; FCA/Compound 2, 10 mg/kg p.o., 3 hrs, individual animals): 2.9 mL (4×) and 3.1 mL and 2.7 mL and 2.4 mL and 3.2 mL
- Paw volume (FCA induced edema; FCA/Compound 2, 10 mg/kg p.o., Pre-Drug (D2), individual animals): 2.7 mL (2×) and 3 mL and 2.6 mL (2×) and 2.8 mL and 2.4 mL and 3.2 mL
- Paw volume (FCA induced edema; FCA/Compound 2, 10 mg/kg p.o., Pre-Drug, individual animals): 3.1 mL (2×) and 2.8 mL (2×) and 2.9 mL and 3 mL and 2.7 mL and 3.4 mL
- Paw volume (FCA induced edema; FCA/Compound 2, 30 mg/kg p.o., dosed 24 hours post-FCA, Pre-FCA (baseline), individual animals): 1.7 mL (4×) and 1.8 mL (2×) and 1.5 mL and 1.9 mL
- Paw volume (FCA induced edema; FCA/Compound 2, 30 mg/kg p.o., 1 hr, individual animals): 2.6 mL
- Paw volume (FCA induced edema; FCA/Compound 2, 30 mg/kg p.o., Pre-Drug, individual animals): 2.8 mL (2×) and 3 mL (2×) and 2.9 mL and 3.2 mL and 2.6 mL and 3.4 mL
- Paw volume (FCA induced edema; Pre-FCA, compound 2 10 mg/kg p.o. preemptive group, individual rats, FIG. 20A, 10 mg/kg): 1.7 mL (2×) and 1.6 mL and 1.8 mL (2×) and 1.9 mL
- Paw volume (FCA induced edema; Pre-FCA, compound 2 30 mg/kg p.o. preemptive group, individual rats, FIG. 20A, 30 mg/kg): 1.6 mL and 1.7 mL (2×) and 1.9 mL and 1.8 mL (2×)
- FCA-induced edema (finding in words) (FCA induced edema; rat, 10 and 30 mg/kg p.o., preemptive and curative (24 hours post-FCA)): did not have a statistically significant effect; also recorded: did not affect edema
- Paw volume ([2]; 1 hr post-drug, compound 2 10 mg/kg p.o. 3 hrs after carrageenan (curative), FIG. 21B, 10 mg/kg): 2.6 mL and 2.9 mL and 2.5 mL and 2.7 mL
- Paw volume ([2]; 1 hr post-drug, compound 2 30 mg/kg p.o. 3 hrs after carrageenan (curative), FIG. 21B, 30 mg/kg): 2.4 mL and 2.6 mL and 2.5 mL and 2.9 mL and 2.3 mL
- Paw volume ([2]; Pre-Cg, compound 2 10 mg/kg group, individual rats, FIG. 21B, 10 mg/kg): 1.7 mL (2×) and 1.8 mL (3×) and 1.6 mL
- Paw volume ([2]; Pre-Cg, compound 2 30 mg/kg group, individual rats, FIG. 21B, 30 mg/kg): 1.6 mL (3×) and 1.7 mL (2×) and 1.8 mL and 1.5 mL
- Paw volume ([2]; compound 2 10 mg/kg p.o. preemptive, 4 hr post-drug, individual animals, 10 mg/kg): 3.3 mL and 2.8 mL (2×) and 3.2 mL and 3.1 mL and 2.9 mL
- Paw volume ([2]; compound 2 10 mg/kg p.o. preemptive, Pre-Cg, individual animals, 10 mg/kg): 1.7 mL (2×) and 1.6 mL (3×) and 1.5 mL
- Paw volume ([2]; compound 2 30 mg/kg p.o. preemptive, 4 hr post-drug, individual animals, 30 mg/kg): 2.9 mL and 2.7 mL (4×) and 2.8 mL
- Paw volume ([2]; compound 2 30 mg/kg p.o. preemptive, Pre-Cg, individual animals, 30 mg/kg): 1.7 mL (3×) and 1.6 mL (2×) and 1.8 mL
- carrageenan-induced edema, preemptive (finding in words) ([2]; rat, 10 and 30 mg/kg p.o. 15 minutes prior to carrageenan): did not significantly prevent
- carrageenan-induced edema, curative (finding in words) ([2]; rat, p.o. 3 hours post-carrageenan, significant at 30 mg/kg, 30 mg/kg): significantly reversed edema
- Paw threshold ([3]; FIG. 25, compound 2 30 mg/kg p.o. once on the day of surgery, 1 wk, 30 mg/kg): 1.85 g and 1.18 g and 2.81 g and 4.47 g and 6.4 g and 2.2 g and 15 g and 4.25 g
- Paw threshold ([3]; FIG. 25, compound 2 30 mg/kg p.o. once on the day of surgery, 2 wks, 30 mg/kg): 1.65 g and 2.81 g and 2 g (2×) and 3.73 g and 0.99 g and 5.56 g and 5.04 g
- Paw threshold ([3]; FIG. 25, compound 2 30 mg/kg p.o. once on the day of surgery, Pre-Sx): 15 g
- Paw threshold ([3]; FIG. 26, compound 2 30 mg/kg p.o. QD on days 1-5 post-surgery, 1 wk, 30 mg/kg): 15 g (4×) and 11.41 g and 3.13 g and 1.18 g and 6.66 g
- Paw threshold ([3]; FIG. 26, compound 2 30 mg/kg p.o. QD on days 1-5 post-surgery, 2 wks, 30 mg/kg): 13.96 g (2×) and 4.25 g and 5.37 g and 11.69 g and 2.8 g and 8.44 g and 7.94 g
- Paw threshold ([3]; FIG. 26, compound 2 30 mg/kg p.o. QD on days 1-5 post-surgery, 3 wks, 30 mg/kg): 7.53 g and 6.64 g and 4.98 g and 2.2 g and 4.4 g and 2.38 g and 10.31 g and 15 g
- Paw threshold ([3]; FIG. 26, compound 2 30 mg/kg p.o. QD on days 1-5 post-surgery, Pre-Sx, 30 mg/kg): 15 g (7×) and 11.69 g
- Paw withdrawal threshold ([3]; compound 2 10 mg/kg p.o., 1 hr (D1), 10 mg/kg): 1.56 g and 4.98 g and 4.25 g (2×) and 15 g and 3.13 g and 2.81 g and 4.4 g
- Paw withdrawal threshold ([3]; compound 2 10 mg/kg p.o., 1 hr (D2), 10 mg/kg): 1.31 g and 1.85 g (3×) and 2.38 g and 2.64 g and 1.65 g and 1.4 g
- Paw withdrawal threshold ([3]; compound 2 10 mg/kg p.o., 1 hr (D3), 10 mg/kg): 0.44 g and 3.67 g and 1.85 g and 7.94 g and 3.33 g and 2 g and 2.81 g and 4.4 g
- Paw withdrawal threshold ([3]; compound 2 10 mg/kg p.o., 3 hrs (D1), 10 mg/kg): 2 g and 7.94 g and 1.4 g and 15 g and 2.81 g and 2.64 g and 1.85 g and 3.57 g
- Paw withdrawal threshold ([3]; compound 2 10 mg/kg p.o., 3 hrs (D2), 10 mg/kg): 0.4 g and 1.56 g (2×) and 11.69 g and 2.81 g and 2.37 g and 2 g and 3.71 g
- Paw withdrawal threshold ([3]; compound 2 10 mg/kg p.o., 3 hrs (D3), 10 mg/kg): 0.99 g and 2.37 g and 1.56 g and 2.38 g and 2.81 g (2×) and 0.65 g and 3.33 g
- Paw withdrawal threshold ([3]; compound 2 10 mg/kg p.o., Pre-Drug, 10 mg/kg): 2.2 g and 3.13 g (2×) and 4.25 g and 3.58 g and 3.73 g and 4.4 g and 2.64 g
- Paw withdrawal threshold ([3]; compound 2 10 mg/kg p.o., Pre-Sx, 10 mg/kg): 11.69 g and 15 g (7×)
- Paw withdrawal threshold ([3]; compound 2 50 mg/kg p.o., 1 hr (D1), 50 mg/kg): 2.81 g (2×) and 6.64 g and 5.56 g (2×) and 3.67 g and 4.23 g and 4.98 g
- Paw withdrawal threshold ([3]; compound 2 50 mg/kg p.o., 1 hr (D2), 50 mg/kg): 1.19 g and 2.81 g and 3.12 g and 7.94 g
- Paw withdrawal threshold ([3]; compound 2 50 mg/kg p.o., 3 hrs (D1), 50 mg/kg): 1.18 g and 3.13 g (2×) and 3.33 g and 6.66 g (2×) and 6.64 g and 4.7 g
- Paw withdrawal threshold ([3]; compound 2 50 mg/kg p.o., Pre-Drug, 50 mg/kg): 2.81 g (2×) and 3.33 g and 3.73 g and 2.2 g and 5.04 g and 4.25 g and 3.58 g
- Paw withdrawal threshold ([3]; compound 2 50 mg/kg p.o., Pre-Sx): 15 g
- development of SNL tactile allodynia, single administration ([3]; rat, 30 mg/kg p.o. immediately following surgery, assessed 1 and 2 weeks later, FIG. 25): a significant difference between treated animals and vehicle controls was not noted
- development of SNL tactile allodynia, repeated administration ([3]; rat, 30 mg/kg p.o. once a day for 5 days starting on day of surgery, 1, 2 and 3 weeks post surgery, FIG. 26): significant reduction in tactile allodynia
- reversal of SNL tactile allodynia, fasted animals, subsequent administrations ([3]; rat, 50 mg/kg p.o., 48 hrs later, FIG. 24): failed to produce a statistically significant effect
- reversal of SNL tactile allodynia, non-fasted animals ([3]; rat, 10 and 50 mg/kg p.o., any time point after any of three administrations, FIG. 23): did not produce a statistically significant difference from vehicle treated animals
